Common to all, as to format: in vivo, rat
Test [1] relates to rats under propofol anesthesia. As to the kind of experiment: Measurement 1 of inhibiting effect of decrease in body temperature (rectal temperature, propofol anesthesia). The settings on record: for variation of body temperature in 3 hours after administering the anesthesia solution to that before administration: average; for inhibiting effect of decrease in body temperature (core temperature), in words: summary of Table 2. Here is the method:
A catheter was inserted into an external jugular vein of each of rats used in the evaluation in advance and a tip of the catheter was […] from their backs and locked with heparin. […] Then, 42 mL/kg thereof were continuously administered for 1 hour simultaneously with the start of administration of the anesthesia agent. Numbers of each group were set to 4 to 6. As for the administration of the anesthesia agent, 15 mg/kg thereof was intravenously administered through the catheter with bolus method at the beginning. […] As for the measurement of the body temperature, a former value was measured with a rectal thermometer before administering amino acid solutions, and values were measured at 30-minute intervals from the start of administration of the anesthesia agent until 3 hours after the end thereof. The measurement results were calculated as variations (value before administration-value after administration) of values in 3 hours after administering the anesthesia solution to those before administration and represented with average ± standard deviation. As for a statistical test, comparison between two groups with the normal saline solution was conducted using student t-test.

Test [2] relates to rats under propofol anesthesia. As to the kind of experiment: Measurement 2 of inhibiting effect of decrease in body temperature: timing of valine administration (Groups A to D). Here is the method:
Examination was conducted on whether differences of the inhibiting effect of decrease in body temperature of valine were shown depending on difference of timings of administration (following A to D). A catheter was inserted into an outward jugular vein of each of rats (7 to 8 weeks age) used in the evaluation in advance and a tip of the catheter was exserted from their backs and locked with heparin. The rats were recovered for a few days in the status quo. Valine was administered through the catheter with the following four methods:
A: for 2 hours before the start of administration of propofol
B: for 1 hour before the start of administration of propofol+1 hour after the start of administration of propofol
C: for 2 hours simultaneously with the start of administration of propofol
D: for 2 hours starting from 1 hour after the start of administration of propofol. 105 mg/kg of valine containing 10.5 mL/kg of 1% valine solution was administered to Group A eight times at 15-minute intervals. 105 mg/kg of valine containing 10.5 mL/kg of 1% valine solution was administered to Group B four times at 15-minute intervals and then continuously administered for 1 hour in 420 mg/kg/hr containing 42 mL/kg of 1% valine solution. Valine was continuously administered to Groups C and D for 2 hours in 420 mg/kg/hr containing 42 mL/kg of 1% valine solution. Each group (n=8 to 9) was administered the same total dose of valine. 15 mg/kg of a propofol anesthesia agent was administered through the catheter at the beginning and, after induction of anesthesia, it was continuously administered for 3 hours in 33.75 mg/kg/hr.

The test system of test [3] is rats with surgical invasion under propofol anesthesia. As to the kind of experiment: Effect on recovery from operative invasion (abdominal surgery under propofol anesthesia; body temperature and survival). Here is the method:
A catheter was inserted into an external jugular vein of each of rats (7 weeks age) used in the evaluation in advance and a tip of the catheter was exserted from their backs and locked with heparin. The rats were recovered for a few days in the status quo. 105 mg/kg of valine (5.25 mL/kg of 2 W/V % of valine solution) was administered through the catheter to a valine-administered group four times at 15-minute intervals from 60 minutes before the start of administration of a propofol anesthesia agent. Then, valine was continuously administered for 5 hours in 420 mg/kg/hr (21 mL/kg of 2 W/V % valine solution) simultaneously with the start of administration of the propofol anesthesia agent. A normal saline solution was administered instead of a valine solution to an objective group. As for the administration of the propofol anesthesia agent, 15 mg/kg thereof was intravenously administered through the catheter with bolus method at the beginning. Soon after that, the agent was started to be continuously administered in 45 mg/kg/hr. 1 hour later, the administration speed was changed to 33.75 mg/kg/hr and continuous administration was conducted for 5 hours. Numbers of each group were set to 8. As for surgical invasion, abdominals of the rats were opened after the bolus anesthesia, their appendixes were exteriorized from their abdominal cavities and exposed in the air for 30 minutes. Then, their appendixes were put back to their abdominal cavities and sutured. As for the measurement of the body temperatures, a former value was measured with a rectal thermometer before administering the amino acids, and the value was measured again in 3 hours after the administration of propofol. The results were shown as the decreased temperature to Pre value. Survival rates were calculated from number of survivors in 24 hours from the start of the experiment.

The test system of test [4] is peripheral mononuclear blood cells (PBMC) TNF-α production. As to the kind of experiment: Effect on production of peripheral mononuclear blood cell TNF-α (PBMC taken after anesthesia and celiotomy, LPS stimulation, ELISA). The settings on record: PBMC incubated with 1 μg/mL LPS for 24 hours; valine 4 x 105 mg/kg then 420 mg/kg/hr for 1 hour; n=6. Here is the method:
(§1) The examination was practiced with three groups of a normal group, a valine-administered group and an objective group. A catheter was inserted into an external jugular vein of each of rats (7 to 8 weeks age) used in the evaluation in advance and a tip of the catheter was exserted from their backs and locked with heparin. The rats were recovered for a few days in the status quo. 105 mg/kg of valine (5.25 mL/kg of 2 W/V % of valine solution) was administered through the inserted catheter to the valine-administered group (n=6) four times at 15-minute intervals from 60 minutes before the start of administration of a propofol anesthesia agent. Then, valine was continuously administered for 1 hour in 420 mg/kg/hr (21 mL/kg of 2 W/V % valine solution) simultaneously with the start of administration of the propofol anesthesia agent. A normal saline solution was administered instead of valine to the objective group (n=6). 15 mg/kg of the propofol anesthesia agent was introduced to be administered through the catheter at the beginning, and continuously administered for 3 hours in 33.75 mg/kg/hr. The celiotomy invasion was conducted by opening the abodominals of the rats simultaneously with the administration of the anesthesia, exteriorizing their appendixes from the abdominal cavities, putting them back again at once and suturing the abdominals. The catheter was not inserted to the normal group. […]

The test system of test [5] is rats with celiotomy invasion under propofol anesthesia. As to the kind of experiment: Body temperature at the end of anesthesia in the celiotomy invasion experiment. The settings on record: valine-administered group, n=6. Here is the method:
as §1

Setting [6] is: 0.1% solution i.v. (4 x 10.5 mL/kg before, 42 mL/kg during 1 h of propofol).
The mark [7] stands for this setting: 1% solution i.v. (4 x 10.5 mL/kg before, 42 mL/kg during 1 h of propofol).
Where [8] appears, read: Group A: valine for 2 hours before the start of propofol.
The mark [9] stands for this setting: Group B: valine for 1 hour before + 1 hour after the start of propofol.
The mark [10] stands for this setting: Group C: valine for 2 hours simultaneously with the start of propofol.
The mark [11] stands for this setting: Group D: valine for 2 hours starting 1 hour after the start of propofol.

Regarding `N[C@@H](CC(=O)O)C(=O)O` [Asparatic Acid, asparatic acid], the “variation of body temperature in 3 hours after administering the anesthesia solution to that before administration” value (“variation of body temperature in 3 hours” below) in test [1] (setting [6]) is −6.4 °C; in test [1] (setting [7]) it was −4.5 °C. Further, the “inhibiting effect of decrease in body temperature (core temperature), in words” value in test [1] is given as “inhibiting effect of decrease in body temperature (core temperature) was shown”.
In the same order, the values of `N[C@@H](CS)C(=O)O` [Cystein, cystein] are −6.3 °C, −4.8 °C and “inhibiting effect of decrease in body temperature (core temperature) was shown”.
`NCC(=O)O` [Glycine, glycine]: the “variation of body temperature in 3 hours” value is −6.4 °C in test [1] (setting [6]) and −6.1 °C in test [1] (setting [7]). Further, the “inhibiting effect of decrease in body temperature (core temperature), in words” value in test [1] is listed as “inhibiting effect of decrease in body temperature (core temperature) was shown”.
Take `CC(C)[C@H](N)C(=O)O` [Valine, valine]: the “variation of body temperature in 3 hours” value in test [1] (setting [6]) is −4.8 °C; in test [1] (setting [7]) it was −4.0 °C. For the same compound, the “inhibiting effect of decrease in body temperature (core temperature), in words” value in test [1] was “inhibiting effect of decrease in body temperature (core temperature) was shown”. For the same compound, the “decrease in body temperature from the time before administration until the end of the anesthesia” value in test [2] (setting [8]) was determined as 6.1±1.9 °C; in test [2] (setting [9]), 4.3±1.2 °C; in test [2] (setting [10]), 6.1±1.4 °C; in test [2] (setting [11]), 6.9±1.0 °C. Besides, the “increase in body temperature from the end of administration of the anesthesia until 1 hour after” value turned out to be 1.1±0.5 °C in test [2] (setting [8]), 2.0±1.2 °C in test [2] (setting [9]), 2.0±0.9 °C in test [2] (setting [10]) and 1.0±0.6 °C in test [2] (setting [11]). In test [2] (setting [11]), the “inhibiting effect of decrease in body temperature, in words” value was “inhibiting effect of decrease in body temperature was not shown”. Also, the “inhibition of the decrease in body temperature versus the objective (saline) group” value in test [3] (3 hours after administration of propofol) amounted to 1.19 °C. Also, the “decrease in body temperature to Pre value” in test [3] (3 hours after administration of propofol, valine 4 x 105 mg/kg then 420 mg/kg/hr for 5 hours, n=8) came out at 7.83±0.87 °C. Besides, in test [3] (24 hours from the start of the experiment, n=8), the “survival rate after one day” value is recorded as 87.5%. In test [4], the “production quantity of TNF-α” value amounted to 1389.8±415.8 pg/1×10^6 cells. In test [5], the “body temperature at the end of the administration of the anesthesia” value came out at 31.2±0.8 °C.

For the origin of these results see patent publication US20060063839A1, “Inhibitors of decrease in body temperature” (AJINOMOTO CO., INC., priority 2003, published 2006).
